Data as given in US7951595B2, “Methods for screening modulators of SLC17-type anion transport activity” (National University Corporation Okayama University, priority 2007, dated 2011).
Blank lines part the entries; values can stand above or below the molecule they belong to.

What was measured:
mouse SLC17A9 (mSLC17A9) = molecular target: T1, mouse SLC17A9 (mSLC17A9) (Mus musculus, UniProt Q8VCL5); assay: ATP transport by reconstituted mSLC17A9 protein proteoliposomes; type: biochemical; details: added at 2 mM, uptake for 2 minutes, FIG. 22
T1 construct: His6 (from pDEST10 vector) (N); made in house; host or cells: insect cells, baculovirus system (Sf9 named for virus production)
T1 sequence (Q8VCL5 1-447): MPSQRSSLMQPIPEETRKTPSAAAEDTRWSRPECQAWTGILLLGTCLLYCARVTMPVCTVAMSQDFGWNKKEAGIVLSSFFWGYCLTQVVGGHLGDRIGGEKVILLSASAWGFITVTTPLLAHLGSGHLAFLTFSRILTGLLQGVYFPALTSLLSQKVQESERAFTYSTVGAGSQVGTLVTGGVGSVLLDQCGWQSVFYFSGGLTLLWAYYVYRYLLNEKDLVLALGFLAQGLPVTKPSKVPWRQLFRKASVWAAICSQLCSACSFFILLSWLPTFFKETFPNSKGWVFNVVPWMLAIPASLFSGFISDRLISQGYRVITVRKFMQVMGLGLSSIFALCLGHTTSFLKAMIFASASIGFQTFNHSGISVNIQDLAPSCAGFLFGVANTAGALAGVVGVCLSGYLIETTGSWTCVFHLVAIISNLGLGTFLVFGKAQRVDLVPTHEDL
Description: 20 μg of the purified mSLC17A9 protein and 0.5 mg of soybean-derived lipids were mixed, and the mixture was incubated at −80° C. for 5 minutes or longer. This mixture was thawed quickly by holding the tube in the hands, and was diluted 30-fold with a buffer solution containing 20 mM MOPS-Tris (pH 7.0), 0.15M sodium acetate, 2 mM magnesium acetate and 0.5 mM DTT. This dilution was centrifuged at 200,000×g at 4° C. for one hour, the supernatant was discarded, and the precipitate was resuspended in a buffer solution containing 20 mM MOPS-Tris (pH 7.0), 0.15M sodium acetate, 2 mM magnesium acetate and 0.5 mM DTT, to achieve reconstitution. […] The mixture was further incubated for 2 minutes. […] Furthermore, in an inhibitor test, an inhibitor at a predetermined concentration was added in the case of incubating the proteoliposomes.

human SLC17A9 = molecular target: T2, human SLC17A9 (Homo sapiens, UniProt Q9BYT1, N228S); assay: Nucleotide transport by human SLC17A9 reconstituted proteoliposomes (valinomycin-induced membrane potential, radiolabelled substrate); type: biochemical; details: for uptake of ADP and GTP into SLC17A9 reconstituted proteoliposomes over time: 100 μM each, FIG. 16; for effect of nucleotides on ATP transport: nucleotide 1 mM, FIG. 15
T2 construct: His6 (from pDEST10 vector); made in house; host or cells: insect cells, baculovirus system (Sf9 named for virus production)
T2 sequence (Q9BYT1 1-430 isoform Q9BYT1-2 N222S): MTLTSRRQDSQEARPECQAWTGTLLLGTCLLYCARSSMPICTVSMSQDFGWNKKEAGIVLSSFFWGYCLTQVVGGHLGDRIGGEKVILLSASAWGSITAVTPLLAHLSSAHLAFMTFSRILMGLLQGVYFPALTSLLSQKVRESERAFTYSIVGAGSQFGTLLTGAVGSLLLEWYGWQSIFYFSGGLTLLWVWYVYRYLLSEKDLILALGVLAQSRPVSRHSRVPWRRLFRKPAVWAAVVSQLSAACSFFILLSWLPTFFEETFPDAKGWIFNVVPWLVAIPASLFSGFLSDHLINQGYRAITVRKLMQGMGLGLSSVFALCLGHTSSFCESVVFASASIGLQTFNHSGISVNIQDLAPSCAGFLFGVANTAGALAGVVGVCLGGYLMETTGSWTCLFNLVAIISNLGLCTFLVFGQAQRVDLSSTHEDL
Description: 10 μg of purified SLC17A9 and 0.5 mg of soybean-derived lipids were mixed and incubated at −80° C. for 5 minutes or more. The mixture was thawed quickly by holding the tube in the hands, and was diluted 60-fold with a buffer solution containing 20 mM MOPS-Tris (pH 7.0), 0.15M sodium acetate, 2 mM magnesium acetate and 0.5 mM DTT. This dilution was centrifuged at 200,000×g at 4° C. for one hour, the supernatant was discarded, and the precipitate was resuspended in a buffer solution containing 20 mM MOPS-Tris (pH 7.0), 0.15M sodium acetate, 2 mM magnesium acetate and 0.5 mM DTT, to obtain SLC17A9 reconstituted proteoliposomes. As a control, liposomes without SLC17A9 were used.
The nucleotide transport activity was measured by the following procedure. The reconstituted proteoliposomes were incubated in a buffer solution containing 20 mM MOPS-Tris (pH 7.0), 0.15M potassium acetate, 2 mM magnesium acetate and 4 mM potassium chloride, at 27° C. for 2 minutes, and valinomycin was added thereto to a final concentration of 2 μM. The mixture was incubated for further 2 minutes. The point of addition of 0.1 mM [α-^32P]ATP (3.7 GBq/mmol) was defined as the initiation of activity measurement. At a predetermined time point, 130 μL of the reaction liquid was recovered and centrifuged through a Sephadex G-50 (fine) spin column at 760×g for 2 minutes. The uptake of ATP was measured by measuring the radioactivity included in the reaction liquid that had passed through the column using a liquid scintillation counter. In the measurement of the transport activity for ADP and GTP, [2,8-^3H]ADP (0.37 GBq/mmol) and [α-^32P]GTP (3.7 GBq/mmol) were used instead of ATP as the substrate.
In an experiment for an inhibitor, a predetermined concentration of an inhibitor was added upon incubation of the proteoliposomes.

PC12 cells = assay: KCl-dependent ATP release after SLC17A9 knockdown; type: cell-based, rat; details: 25 nM siRNA, 3 days, KCl stimulus 30 minutes, FIG. 19(B)
Description: (§1) Knockdown of SLC17A9 by RNAi was carried out as follows. A sequence for RNAi designed by Qiagen HP OnGuard siRNA Design was used. The nucleic acid sequence of the RNAi used was […] (SEQ ID NO: 15). This sequence and HiPerFect transfection reagent (Qiagen) were used for transfection of 25 nM AllStars negative control siRNA or 25 nM rat SLC17A9 siRNA, and the resultant was cultured for 3 days, to thereby perform knockdown of SLC17A9. […] The amounts of SCL17A9 mRNA in the knocked-down cells (RNAi) and control cells (control) were measured by real-time PCR, and as shown in FIG. 19(A), the amount of SLC17A9 mRNA was decreased by RNAi.

SLC17A9 mRNA = assay: Knockdown of SLC17A9 by RNAi, SLC17A9 mRNA by real-time PCR; type: cell-based; details: 25 nM rat SLC17A9 siRNA, cultured 3 days, versus control siRNA, FIG. 19(A)
Description: as §1

[1] = substrate: Nc1ncnc2c1ncn2[C@@H]1O[C@H](COP(=O)(O)OP(=O)(O)OP(=O)(O)O)[C@@H](O)[C@H]1O; assay: purified protein, by the assay type; details: other: reconstituted mSLC17A9, membrane potential-dependent transport, calculated using KaleidaGraph; pH 7.0; 27.0 °C
[2] = substrate: Nc1ncnc2c1ncn2[C@@H]1O[C@H](COP(=O)(O)OP(=O)(O)OP(=O)(O)O)[C@@H](O)[C@H]1O; assay: cells, lysate or membranes named; details: other: human SLC17A9 proteoliposomes, ATP uptake at various concentrations; pH 7.0; 27.0 °C

inhibition of radioactive ATP uptake (mouse SLC17A9 (mSLC17A9)): compete with ATP | uptake of ADP and GTP into SLC17A9 reconstituted proteoliposomes over time (human SLC17A9): actually taken up | effect of nucleotides on ATP transport (human SLC17A9): recognized as transport substrates
Molecule: Nc1ncnc2c1ncn2[C@@H]1O[C@H](COP(=O)(O)OP(=O)(O)O)[C@@H](O)[C@H]1O [ADP, adenosine diphosphate]

inhibition of radioactive ATP uptake (mouse SLC17A9 (mSLC17A9)): compete with ATP | uptake of ADP and GTP into SLC17A9 reconstituted proteoliposomes over time (human SLC17A9): actually taken up | effect of nucleotides on ATP transport (human SLC17A9): recognized as transport substrates
Molecule: Nc1nc2c(ncn2[C@@H]2O[C@H](COP(=O)(O)OP(=O)(O)OP(=O)(O)O)[C@@H](O)[C@H]2O)c(=O)[nH]1 [GTP]

Molecule: SLC17A9 RNAi: RNAi of sequence UAUUCGAGAGAAUGUCACG (SEQ ID NO: 15) for knockdown of SLC17A9 (listed as RNA, chemistry not given here)
KCl-dependent ATP release (PC12 cells): suppressed | amount of SLC17A9 mRNA (SLC17A9 mRNA): decreased

B1: mouse SLC17A9 (mSLC17A9) (Mus musculus) (protein)
chain: T1 sequence (Q8VCL5 1-447)
Km [1]: 0.23 mM | Vmax [1]: 23.8 nmol/min/mg of protein

B2: human SLC17A9 (Homo sapiens; N228S) (protein)
chain: T2 sequence (Q9BYT1 1-430 isoform Q9BYT1-2 N222S)
Km [2]: 0.8 mM
